US20250041232A1, “MICROSPHERES COMPRISING HIGH-DOSE VARENICLINE, METHOD FOR PREPARING SAME, AND PHARMACEUTICAL COMPOSITION COMPRISING SAME” (AULBIO CO., LTD., priority 2021, published 2025)

Assay: Measurement of varenicline loading amount and encapsulation efficiency in microspheres (HPLC)
Assay type: physicochemical
Details: microspheres dissolved in acetonitrile/80% methanol, HPLC-UV
Method: About 10 mg of the microspheres prepared in Example 2 and Comparative Examples 1 and 2 were taken, placed in a 20 mL flask, and completely dissolved in 2 mL of acetonitrile (manufacturer: Honeywell). It was adjusted to the mark with 80% methanol (manufacturer: Honeywell) and filtered through a 0.45 μm syringe filter. This solution was detected with an ultraviolet-visible spectrophotometer using HPLC (equipment name: Agilent). L1 (inner diameter 4.6 mm×150 mm, thickness 5 μm) was used as the column.

- Encapsulation efficiency (%): more than 90%
Substance: varenicline pamoate salt
